Measurements: PubChem BioAssay (NCI)
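Compound exposure: 48 hours, 5 concentrations, 96-well plates. GI50 is the concentration that inhibits growth by half. Definition used: TGI = concentration required for complete inhibition of growth.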

Tests used:
Experiment in all cases: DTP human tumour cell line panel, 48 h
NCI-H460 lung = tested on: NCI-H460 lung
SK-MEL-2 melanoma = tested on: SK-MEL-2 melanoma
MCF7 breast = tested on: MCF7 breast
MDA-N = tested on: MDA-N
HCC-2998 colon = tested on: HCC-2998 colon
PC-3 prostate = tested on: PC-3 prostate
MALME-3M melanoma = tested on: MALME-3M melanoma
RPMI-8226 leukemia = tested on: RPMI-8226 leukemia
RXF 393 renal = tested on: RXF 393 renal
ACHN renal = tested on: ACHN renal

Compound	TGI (NCI-H460 lung)	TGI (SK-MEL-2 melanoma)	TGI (MCF7 breast)	TGI (MDA-N)	TGI (HCC-2998 colon)	TGI (PC-3 prostate)	TGI (MALME-3M melanoma)	TGI (RPMI-8226 leukemia)	TGI (RXF 393 renal)	TGI (ACHN renal)	GI50 (NCI-H460 lung)	GI50 (SK-MEL-2 melanoma)	GI50 (MCF7 breast)	GI50 (HCC-2998 colon)	GI50 (PC-3 prostate)	GI50 (MALME-3M melanoma)	GI50 (RPMI-8226 leukemia)	GI50 (ACHN renal)	GI50 (RXF 393 renal)
OCC1NC(CO)C(O)C1O (stereo unspecified)	> 100 µM	> 100 µM	> 100 µM	> 100 µM	> 100 µM	> 100 µM	> 100 µM	> 100 µM	> 100 µM										
Nc1ccc(C2(c3ccc(N)cc3)C3CC4CC(C3)CC2C4)cc1		34.8 µM	43.7 µM	37.6 µM	41 µM	29.3 µM			17.8 µM	32.7 µM									
O=Nn1c2ccccc2c2ccccc21	> 100 µM	> 100 µM	> 100 µM		60.7 µM	> 100 µM	> 100 µM	> 100 µM	> 100 µM	> 100 µM									
CC(C)N(CCNc1nc(C(Cl)(Cl)Cl)nc2cc(Cl)ccc12)C(C)C	2.6 µM	3.63 µM	3.05 µM		2.86 µM	2.73 µM	3.98 µM	3.18 µM	2.78 µM	2.66 µM	1.13 µM	1.76 µM	1.54 µM	1.34 µM	1.15 µM	1.83 µM	1.19 µM	1.29 µM	1.41 µM
Cc1ccc(S(=O)(=O)NCCCSCCN)cc1	> 100 µM		> 100 µM	> 100 µM	> 100 µM	> 100 µM			> 100 µM	> 100 µM									
COc1ncnc2c(Cl)c(C(O)c3ccccc3)c(Cl)cc12 (stereo unspecified)	> 100 µM	> 100 µM	> 100 µM	18.7 µM		> 100 µM	83 µM	66.4 µM	35.5 µM	97.2 µM									
Fc1ccc(C2CC(c3cccc(Nc4ccncc4)c3)=NN2c2ccccc2)cc1 (stereo unspecified)	3.19 µM		3.48 µM		3 µM	3.18 µM	3.16 µM			3.11 µM	1.76 µM		1.74 µM	1.63 µM	1.58 µM	1.6 µM		1.71 µM	
O=C(Nc1ccc(C(F)(F)F)cc1[N+](=O)[O-])C(=O)Nn1c(=S)[nH]c2ccccc2c1=O	> 100 µM	> 100 µM			> 100 µM		> 100 µM	> 100 µM	> 100 µM	> 100 µM									
CCOP(=O)(OCC)C(Cc1c[nH]c2ccccc12)C(=O)O (stereo unspecified)	> 100 µM	> 100 µM	> 100 µM	> 100 µM	> 100 µM	> 100 µM		> 100 µM		> 100 µM									
CC=C/C=C/[C@@H]1O[C@](O)([C@H](CC)C(=O)NC/C=C/C=C(\C)[C@@H](OC)[C@@H](C)[C@@H]2O[C@H](/C=C/C=C/C=C(\C)C(=O)c3c(O)cc[nH]c3=O)[C@H](O)[C@@H]2O)[C@H](O)[C@H](O)C1(C)C	> 100 µM	> 100 µM	> 100 µM		> 100 µM	> 100 µM	> 100 µM	> 100 µM		> 100 µM									
COc1ccc(/C=C/c2cc(O)cc(OC3OC(CO)C(O)C(O)C3O)c2)cc1O (stereo unspecified)	> 100 µM	> 100 µM	> 100 µM	> 100 µM	> 100 µM	> 100 µM	> 100 µM	> 100 µM	> 100 µM	> 100 µM									
COc1ccc(CCn2ccc(C)n2)c(OC)c1	> 100 µM		> 100 µM	> 100 µM		> 100 µM	> 100 µM		> 100 µM	> 100 µM									
